Source: ChEMBL document CHEMBL1134855, “Synthesis and hypoglycemic evaluation of substituted pyrazole-4-carboxylic acids” (2002)

Key:
Assay type in all cases: functional
Rattus norvegicus [1] = assay: Evolution of glycemia 2 hr after the last administration for 4 days chronic treatment at the dose of 200 mg/kg in rat
Rattus norvegicus [2] = assay: Evolution of glycemia 2 hr after the last administration for 4 days chronic treatment at the dose of 20 mg/kg in rat
Rattus norvegicus [3] = assay: Evolution of glycemia 2 hr after first administration at the dose of 200 mg/kg in rat
Rattus norvegicus [4] = assay: Evolution of glycemia 2 hr after first administration at the dose of 20 mg/kg in rat

Row | Structure (SMILES) | Glyceamia evolution (Rattus norvegicus [1]) | Glyceamia evolution (Rattus norvegicus [2]) | Glyceamia evolution (Rattus norvegicus [3]) | Glyceamia evolution (Rattus norvegicus [4])
1 | O=C(O)c1c[nH]nc1OCc1ccccc1 | -15% | -24% | -1% | 1%
2 | COc1nn(Cc2ccc(-c3ccccc3C#N)cc2)cc1C(=O)O | -3% | -10% | 1% | -5%
3 | N#Cc1ccccc1-c1ccc(Cn2cc(C(=O)O)c(OCc3ccccc3)n2)cc1 | -3% | -10% | -4% | -5%
4 | COc1nn(C)cc1C(=O)O | -10% | -10% | -5% | -7%
5 | Cn1cc(C(=O)O)c(OCc2ccccc2)n1 | -4% | 2% | -5% | -4%
6 | C=CCn1cc(C(=O)O)c(OC)n1 | 6% | 1% | 5% | 3%
7 | O=C(O)c1cn(Cc2nn[nH]n2)nc1OCc1ccccc1 | -7% | -7% | -2% | 0%
8 | COc1nn(CC=C(C)C)cc1C(=O)O | -11% | -3% | -8% | 3%
9 | N#Cc1ccccc1-c1ccc(COc2n[nH]cc2C(=O)O)cc1 | -5% | -11% | 0% | -7%
10 | COC(=O)CCn1cc(C(=O)O)c(OCc2ccccc2)n1 | -3% | -7% | -13% | -3%
11 | CCOC(=O)Cn1cc(C(=O)O)c(OCc2ccccc2)n1 | -3% | -6% | 0% | -8%
12 | COc1[nH]ncc1C(=O)O | -8% | -20% | -4% | -19%
13 | Cn1cc(C(=O)O)c(=O)[nH]1 | -16% | -12% | -12% | 0%
14 | O=C(CCn1cc(C(=O)O)c(OCc2ccccc2)n1)Nc1ccc(Cl)cc1 | -19% | -10% | -19% | -16%
15 | CCOC(=O)CCCn1cc(C(=O)O)c(OCc2ccccc2)n1 | -6% | -3% | -1% | -1%
16 | O=C(O)c1c[nH]nc1O | 2% | -9% | 7% | -12%
17 | O=C(O)c1cn(Cc2ccccc2)nc1OCc1ccccc1 | -9% | -5% | -14% | -6%
18 | CN(C)C(=N)NC(=N)N [METFORMIN] | -24% |  | -24% | 
